Reference: patent US12097210B2, “Concomitant administration of glucocorticoid receptor modulators and CYP3A inhibitors” (Corcept Therapeutics, Inc., priority 2017, dated 2024)

Test: Example 2: effect of a 400 mg single dose of ketoconazole on PK of an 8-day regimen of 300 mg or 600 mg OD mifepristone after moderate fat breakfast
Type: in vivo, human
Settings: for increase in AUC0-24, Day 8 relative to Day 7 / increase in Cmax, Day 8 relative to Day 7: 400 mg ketoconazole on Day 8
Procedure: This was an open-label study in healthy male subjects. […] The 400 mg single dose of ketoconazole was given to all subjects on day 8.
METHODOLOGY: Twelve subjects were enrolled, six in Cohort 1 and 6 in Cohort 2.
Subjects were discharged on Day 11.
Subjects were discharged on Day 11. Subjects in both cohorts returned to study center on Day 13 for safety monitoring, collection of the 120-hour PK draw, and completion of the Termination Visit procedures, followed by discharge from the study. To the extent possible, any adverse events deemed study drug-related and that were ongoing at the time of discharge from the study were followed-up to resolution or until a determination was made that the unresolved event was stable.
DIAGNOSIS AND MAIN […] FOR INCLUSION: Healthy male volunteers between the ages of 18 to 45 years of age with a body mass index (BMI) ranging between 19 and 32 kg/m2 and a weight of at least 60 kg (132 lbs) were enrolled. Subjects had no clinically significant abnormal findings on the physical examination, ECG, blood pressure, heart rate, medical history, or clinical laboratory results during screening. The QTc interval at screening was less than 450 msec.
DURATION OF TREATMENT: Up to a total of 28 days, including up to 2 weeks screening, dosing on Days 1-8, safety observation, and PK sample collection through Day 13.
Additionally, comparisons were made between the PK results of cohort 1 and 2. Pharmacokinetic parameters Cmax, T½ and total AUC were calculated for plasma concentrations of ketoconazole following the single dose on Day 8. Descriptive statistics (count, mean, median, standard deviation, minimum, maximum, and % coefficient of variation) were provided. Ketoconazole concentrations were listed and summarized. GM means of Cmax and total AUC were compared for the single dose in this study to the combined data of reported 400 mg single doses of ketoconazole of healthy subjects from the literature.

[1] = MIFE 300 mg/d with vs without 400 mg Keto
[2] = MIFE 600 mg/d with vs without 400 mg Keto
[3] = MIFE 600 vs 300 mg/d, no ketoconazole
[4] = MIFE 600 vs 300 mg/d, with 400 mg Keto

CC#C[C@]1(O)CC[C@H]2[C@@H]3CCC4=CC(=O)CCC4=C3[C@@H](c3ccc(N(C)C)cc3)C[C@@]21C [Mifepristone, 11β-(4-dimethylaminophenyl)-17β-hydroxy-17α-(1-propynyl)-estra-4,9-dien-3-one]
increase in AUC0-24, Day 8 relative to Day 7 (Cohort 1, 300 mg OD): 25%
increase in Cmax, Day 8 relative to Day 7 (Cohort 1, 300 mg OD): 20%
increase in AUC0-24, Day 8 relative to Day 7 (Cohort 2, 600 mg OD): 28%
increase in Cmax, Day 8 relative to Day 7 (Cohort 2, 600 mg OD): 39%
AUC0-24 greater at 600 mg OD than at 300 mg OD (Day 8 with 400 mg ketoconazole): 52%
Cmax greater at 600 mg OD than at 300 mg OD (Day 8 with 400 mg ketoconazole): 65%
half-life greater at 600 mg OD than at 300 mg OD (Day 8 with 400 mg ketoconazole): 13%
Mean Ratio AUCτ, C1 Day 8/Day 7 [1]: 1.25
Mean Ratio Cmax, C1 Day 8/Day 7 [1]: 1.19
Mean Ratio AUCτ, C2 Day 8/Day 7 [2]: 1.28
Mean Ratio Cmax, C2 Day 8/Day 7 [2]: 1.39
Mean Ratio AUCτ, Day 7 C2/C1 [3]: 1.48
Mean Ratio Cmax, Day 7 C2/C1 [3]: 1.42
Mean Ratio AUCτ, Day 8 C2/C1 [4]: 1.52
Mean Ratio Cmax, Day 8 C2/C1 [4]: 1.65
